The structures appear in SMILES notation.

The results in this text go back to patent US20230045421A1 (priority 2018, published 2023).

One experiment concerns HBV rcDNA. Description: HepDE19 assay with bDNA quantitation of HBV rcDNA. Type of experiment: cell-based, hepatitis B virus. The note with it: HepDE19 assay, inhibition of formation of relaxed circular DNA (rcDNA), bDNA quantitation; read-out: DE-19bDNA EC50. In outline:
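Compounds, top concentration 25 μM in 8-point duplicate series, were applied to Tet-free HepDE19 cultures for 7 days. Branched-DNA quantitation of HBV rcDNA against untreated wells gave EC50 and EC90 by 4-parameter fit. Viability (CC50) came from ATP luminescence on parallel plates incubated 4 days.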
Broadly, the EC50 is the concentration giving half of the maximal effect. Regarding `CC(c1c[nH]c(=O)c2cc(F)c(F)cc12)N(C)C(=O)Nc1ccnc(Cl)c1` (single isomer, unassigned) [Compound 419, 3-(2-Chloropyridin-4-yl)-1-(1-(6,7-difluoro-1-oxo-1,2-dihydroisoquinolin-4-yl)ethyl)-1-methylurea], the EC50 came to 48 nM.

Take `CCN(C(=O)Nc1ccc(F)c(F)c1)C(C)c1c[nH]c(=O)c2cc(F)c(F)cc12` (single isomer, unassigned) [Compound 422, 1-(1-(6,7-Difluoro-1-oxo-1,2-dihydroisoquinolin-4-yl)ethyl)-3-(3,4-difluorophenyl)-1-ethylurea]: the EC50 turned out to be 2800 nM.

On to `CCN(C(=O)Nc1ccc(F)c(F)c1)C(C)c1c[nH]c(=O)c2cc(F)c(F)cc12` (single isomer, unassigned) [Compound 423, 1-(1-(6,7-Difluoro-1-oxo-1,2-dihydroisoquinolin-4-yl)ethyl)-3-(3,4-difluorophenyl)-1-ethylurea], for which the EC50 turned out to be 21 nM.

On to `CC(c1cnc(-n2ccnn2)c2ccccc12)N(C)C(=O)Nc1ccc(F)c(Cl)c1` (single isomer, unassigned) [Compound 424, 1-(1-(1-(1H-1,2,3-Triazol-1-yl)isoquinolin-4-yl)ethyl)-3-(3-chloro-4-fluorophenyl)-1-methylurea], for which the 50% effective concentration (EC50) was 6400 nM.

For `CC(c1cnc(-n2ccnn2)c2ccccc12)N(C)C(=O)Nc1ccc(F)c(Cl)c1` (single isomer, unassigned) [Compound 425, 1-(1-(1-(1H-1,2,3-Triazol-1-yl)isoquinolin-4-yl)ethyl)-3-(3-chloro-4-fluorophenyl)-1-methylurea], the EC50 is 90 nM.

On to `Cc1cc(NC(=O)N(C)C(C)c2c[nH]c(=O)c3cc(F)c(F)cc23)ccc1F` (single isomer, unassigned) [Compound 426, 1-(1-(6,7-Difluoro-1-oxo-1,2-dihydroisoquinolin-4-yl)ethyl)-3-(4-fluoro-3-methylphenyl)-1-methylurea], for which the EC50 came to 110 nM.

For the compound `Cc1cc(NC(=O)N(C)C(C)c2c[nH]c(=O)c3cc(F)c(F)cc23)ccc1F` (single isomer, unassigned) [Compound 427, 1-(1-(6,7-Difluoro-1-oxo-1,2-dihydroisoquinolin-4-yl)ethyl)-3-(4-fluoro-3-methylphenyl)-1-methylurea], the EC50 stood at 7 nM.

Take `CC(c1c[nH]c(=O)c2cc(F)c(F)cc12)N(C)C(=O)Nc1ccc(F)c(C#N)c1` (single isomer, unassigned) [Compound 428, 3-(3-Cyano-4-fluorophenyl)-1-(1-(6,7-difluoro-1-oxo-1,2-dihydroisoquinolin-4-yl)ethyl)-1-methylurea]: the EC50 is 1600 nM.

As for `CC(c1c[nH]c(=O)c2cc(F)c(F)cc12)N(C)C(=O)Nc1ccc(F)c(C#N)c1` (single isomer, unassigned) [Compound 429, 3-(3-Cyano-4-fluorophenyl)-1-(1-(6,7-difluoro-1-oxo-1,2-dihydroisoquinolin-4-yl)ethyl)-1-methylurea], the EC50 is 10 nM.

Regarding `CC(c1c[nH]c(=O)c2cc(F)c(F)cc12)N(C)C(=O)Nc1cccc(F)c1F` (single isomer, unassigned) [Compound 430, 1-(1-(6,7-Difluoro-1-oxo-1,2-dihydroisoquinolin-4-yl)ethyl)-3-(2,3-difluorophenyl)-1-methylurea], the 50% effective concentration (EC50) was determined as 12000 nM.

As for `CC(c1c[nH]c(=O)c2cc(F)c(F)cc12)N(C)C(=O)Nc1cccc(F)c1F` (single isomer, unassigned) [Compound 431, 1-(1-(6,7-Difluoro-1-oxo-1,2-dihydroisoquinolin-4-yl)ethyl)-3-(2,3-difluorophenyl)-1-methylurea], the EC50 was determined as 290 nM.

On to `CC(c1c[nH]c(=O)c2c(F)c(F)ccc12)N(C)C(=O)Nc1ccc(F)cc1` (single isomer, unassigned) [Compound 432, 1-(1-(7,8-Difluoro-1-oxo-1,2-dihydroisoquinolin-4-yl)ethyl)-3-(4-fluorophenyl)-1-methylurea], for which the EC50 stood at 11200 nM.

Regarding `CC(c1c[nH]c(=O)c2c(F)c(F)ccc12)N(C)C(=O)Nc1ccc(F)cc1` (single isomer, unassigned) [Compound 433, 1-(1-(7,8-Difluoro-1-oxo-1,2-dihydroisoquinolin-4-yl)ethyl)-3-(4-fluorophenyl)-1-methylurea], the half-maximal effective concentration (EC50) came to 70 nM.

Take `CC(c1c[nH]c(=O)c2c(F)c(F)ccc12)N(C)C(=O)Nc1ccc(F)c(F)c1` (single isomer, unassigned) [Compound 434, 1-(1-(7,8-Difluoro-1-oxo-1,2-dihydroisoquinolin-4-yl)ethyl)-3-(3,4-difluorophenyl)-1-methylurea]: the concentration giving a half-maximal response (EC50) worked out at 3200 nM.

Regarding `CC(c1c[nH]c(=O)c2c(F)c(F)ccc12)N(C)C(=O)Nc1ccc(F)c(F)c1` (single isomer, unassigned) [Compound 435, 1-(1-(7,8-Difluoro-1-oxo-1,2-dihydroisoquinolin-4-yl)ethyl)-3-(3,4-difluorophenyl)-1-methylurea], the EC50 is 240 nM.

As to `CC(c1c[nH]c(=O)c2cc(F)c(F)cc12)N(C)C(=O)Nc1cc(Cl)c(F)c(Cl)c1` (single isomer, unassigned) [Compound 438, 3-(3,5-Dichloro-4-fluorophenyl)-1-(1-(6,7-difluoro-1-oxo-1,2-dihydroisoquinolin-4-yl)ethyl)-1-methylurea], the half-maximal effective concentration (EC50) was determined as 6500 nM.

With `CC(c1c[nH]c(=O)c2cc(F)c(F)cc12)N(C)C(=O)Nc1cc(Cl)c(F)c(Cl)c1` (single isomer, unassigned) [Compound 439, 3-(3,5-Dichloro-4-fluorophenyl)-1-(1-(6,7-difluoro-1-oxo-1,2-dihydroisoquinolin-4-yl)ethyl)-1-methylurea], the EC50 is 120 nM.

`Cc1cc(NC(=O)N(C)C(C)c2c[nH]c(=O)c3c(F)c(F)ccc23)ccc1F` (single isomer, unassigned) [Compound 440, 1-(1-(7,8-Difluoro-1-oxo-1,2-dihydroisoquinolin-4-yl)ethyl)-3-(4-fluoro-3-methylphenyl)-1-methylurea]: the EC50 was 540 nM.

In the case of `Cc1cc(NC(=O)N(C)C(C)c2c[nH]c(=O)c3c(F)c(F)ccc23)ccc1F` (single isomer, unassigned) [Compound 441, 1-(1-(7,8-Difluoro-1-oxo-1,2-dihydroisoquinolin-4-yl)ethyl)-3-(4-fluoro-3-methylphenyl)-1-methylurea], the EC50 was 8 nM.

With `CC(c1c[nH]c(=O)c2c(F)c(F)ccc12)N(C)C(=O)Nc1cc(F)c(F)c(F)c1` (single isomer, unassigned) [Compound 442, 1-(1-(7,8-Difluoro-1-oxo-1,2-dihydroisoquinolin-4-yl)ethyl)-1-methyl-3-(3,4,5-trifluorophenyl)urea], the 50% effective concentration (EC50) was 4700 nM.

In the case of `CC(c1c[nH]c(=O)c2c(F)c(F)ccc12)N(C)C(=O)Nc1cc(F)c(F)c(F)c1` (single isomer, unassigned) [Compound 443, 1-(1-(7,8-Difluoro-1-oxo-1,2-dihydroisoquinolin-4-yl)ethyl)-1-methyl-3-(3,4,5-trifluorophenyl)urea], the EC50 was determined as 40 nM.

On to `CC(C)CN(C(=O)Nc1ccc(F)c(Cl)c1)C(C)c1c[nH]c(=O)c2c(F)cc(F)cc12` (single isomer, unassigned) [Compound 446, 3-(3-Chloro-4-fluorophenyl)-1-(1-(6,8-difluoro-1-oxo-1,2-dihydroisoquinolin-4-yl)ethyl)-1-isobutylurea], for which the half-maximal effective concentration (EC50) was 590 nM.

The experiment is the same for the next values; noted with them: read-out: DE-19bDNA EC50; HepDE19 assay, inhibition of formation of relaxed circular DNA (rcDNA), bDNA quantitation.
Regarding `CC(c1c[nH]c(=O)c2cc(F)c(F)cc12)N(C)C(=O)Nc1ccccc1F` (single isomer, unassigned) [Compound 420, 1-(1-(6,7-Difluoro-1-oxo-1,2-dihydroisoquinolin-4-yl)ethyl)-3-(2-fluorophenyl)-1-methylurea], the concentration for a half-maximal effect (EC50) was determined as 740 nM.

In the case of `CC(c1c[nH]c(=O)c2cc(F)c(F)cc12)N(C)C(=O)Nc1ccccc1F` (single isomer, unassigned) [Compound 421, 1-(1-(6,7-Difluoro-1-oxo-1,2-dihydroisoquinolin-4-yl)ethyl)-3-(2-fluorophenyl)-1-methylurea], the EC50 is 17000 nM.

Take `CC(c1c[nH]c(=O)c2c(F)c(F)ccc12)N(C)C(=O)Nc1ccccc1` (single isomer, unassigned) [Compound 436, 1-(1-(7,8-difluoro-1-oxo-1,2-dihydroisoquinolin-4-yl)ethyl)-1-methyl-3-phenylurea]: the EC50 came to 19200 nM.

For the compound `CC(c1c[nH]c(=O)c2c(F)c(F)ccc12)N(C)C(=O)Nc1ccccc1` (single isomer, unassigned) [Compound 437, 1-(1-(7,8-difluoro-1-oxo-1,2-dihydroisoquinolin-4-yl)ethyl)-1-methyl-3-phenylurea], the half-maximal effective concentration (EC50) was 140 nM.

Consider `CC(c1c[nH]c(=O)c2c(F)c(F)ccc12)N(C)C(=O)Nc1ccc(Cl)cc1` (single isomer, unassigned) [Compound 444, 3-(4-Chlorophenyl)-1-(1-(7,8-difluoro-1-oxo-1,2-dihydroisoquinolin-4-yl)ethyl)-1-methylurea], for which the half-maximal effective concentration (EC50) was found to be 17000 nM.

For `CC(c1c[nH]c(=O)c2c(F)c(F)ccc12)N(C)C(=O)Nc1ccc(Cl)cc1` (single isomer, unassigned) [Compound 445, 3-(4-Chlorophenyl)-1-(1-(7,8-difluoro-1-oxo-1,2-dihydroisoquinolin-4-yl)ethyl)-1-methylurea], the concentration giving a half-maximal response (EC50) was found to be 220 nM.

Regarding `CC(c1c[nH]c(=O)c2c(F)c(F)ccc12)N(C)C(=O)Nc1cc(Cl)cc(Cl)c1` (single isomer, unassigned) [Compound 447, 3-(3,5-Dichlorophenyl)-1-(1-(7,8-difluoro-1-oxo-1,2-dihydroisoquinolin-4-yl)ethyl)-1-methylurea], the half-maximal effective concentration (EC50) is 6500 nM.
